Laboratory results as given in patent US20230172906A1, “METHOD TO TREAT VIRAL INFECTION INDUCED BY A CORONAVIRUS” (priority 2020, published 2023).

Assays:
HEK293 cells = conditions: melatonin at 10 and 100 μM, FIG. 1B
[1] = system: SARS-CoV-2 pseudovirus entry into HEK293 cells expressing human ACE2; format: cell-based
RBD/ACE2 interaction = target: T1, RBD/ACE2 interaction (Homo sapiens, UniProt Q9BYF1); format: binding
T1 construct: expressed in transfected cells; host or cells: HEK293
T1 sequence (Q9BYF1 18-805): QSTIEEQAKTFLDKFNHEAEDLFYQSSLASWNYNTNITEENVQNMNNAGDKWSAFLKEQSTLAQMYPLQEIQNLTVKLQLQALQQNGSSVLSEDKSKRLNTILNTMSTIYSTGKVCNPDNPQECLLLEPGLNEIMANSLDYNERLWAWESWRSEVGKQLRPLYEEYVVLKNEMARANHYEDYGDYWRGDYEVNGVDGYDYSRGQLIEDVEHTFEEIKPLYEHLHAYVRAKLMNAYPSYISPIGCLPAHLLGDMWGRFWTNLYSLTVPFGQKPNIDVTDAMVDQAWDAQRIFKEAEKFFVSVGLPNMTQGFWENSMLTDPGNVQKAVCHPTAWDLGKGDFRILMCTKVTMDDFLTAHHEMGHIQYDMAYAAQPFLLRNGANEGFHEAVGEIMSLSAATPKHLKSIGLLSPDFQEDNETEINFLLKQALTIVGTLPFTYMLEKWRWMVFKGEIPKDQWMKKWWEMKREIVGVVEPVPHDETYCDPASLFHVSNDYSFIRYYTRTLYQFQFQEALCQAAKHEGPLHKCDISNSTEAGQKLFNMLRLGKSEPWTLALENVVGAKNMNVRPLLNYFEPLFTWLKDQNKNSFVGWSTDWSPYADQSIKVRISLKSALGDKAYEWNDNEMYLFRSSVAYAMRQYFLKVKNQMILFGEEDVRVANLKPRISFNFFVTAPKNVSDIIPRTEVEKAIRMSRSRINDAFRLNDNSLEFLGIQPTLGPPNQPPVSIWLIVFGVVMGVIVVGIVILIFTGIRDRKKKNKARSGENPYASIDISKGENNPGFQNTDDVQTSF

COc1ccc2[nH]cc(CCNC(C)=O)c2c1 [melatonin, Melatonin]
cell viability (HEK293 cells): without affecting cell viability
infection by the SARS-CoV-2 pseudovirus [1]: inhibited
binding of RBD-d2 of the SARS-CoV-2 Spike protein to Lumi4-Tb-labeled SNAP-tagged human ACE2 (RBD/ACE2 interaction): inhibits
